PubChem BioAssay AID1918995 (Molecular Pharmacology Branch, DTP, NCI, 2023)

Test system: 324938-238-R-J1-PDC complex spheroid growth, % test/control
Assay: Anticancer human tumor 324938-238-R-J1-PDC patient-derived bladder carcinoma cell line growth inhibition [AhR]
Conditions: for IC50: curve of first compound; for viability, T/C: stronger effect = lower value
Method in brief: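 Agents were dosed in half-log steps down from roughly clinical Cmax, or from 10 microM where Cmax was unknown, alone and with AhR antagonists. Read-out: percent test/control growth of tumor spheroids containing HUVEC and MSC stromal cells.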

[1] = second compound 0.1 µM, first compound 0.0316 µM
[2] = second compound 0.1 µM, first compound 0.1 µM
[3] = second compound 0.1 µM, first compound 0.316 µM
[4] = second compound 0.1 µM, first compound 1 µM
[5] = second compound 0.1 µM, first compound 3.16 µM
[6] = second compound 0.1 µM, first compound 10 µM
[7] = second compound 0.316 µM, first compound 0.0316 µM
[8] = second compound 0.316 µM, first compound 0.1 µM
[9] = second compound 0.316 µM, first compound 0.316 µM
[10] = second compound 0.316 µM, first compound 1 µM
[11] = second compound 0.316 µM, first compound 3.16 µM
[12] = second compound 0.316 µM, first compound 10 µM
[13] = second compound 1 µM, first compound 0.0316 µM
[14] = second compound 1 µM, first compound 0.1 µM
[15] = second compound 1 µM, first compound 0.316 µM
[16] = second compound 1 µM, first compound 1 µM
[17] = second compound 1 µM, first compound 3.16 µM
[18] = second compound 1 µM, first compound 10 µM
[19] = second compound 3.16 µM, first compound 0.0316 µM
[20] = second compound 3.16 µM, first compound 0.1 µM
[21] = second compound 3.16 µM, first compound 0.316 µM
[22] = second compound 3.16 µM, first compound 1 µM
[23] = second compound 3.16 µM, first compound 3.16 µM
[24] = second compound 3.16 µM, first compound 10 µM
[25] = second compound 10 µM, first compound 0.0316 µM
[26] = second compound 10 µM, first compound 0.1 µM
[27] = second compound 10 µM, first compound 0.316 µM
[28] = second compound 10 µM, first compound 1 µM
[29] = second compound 10 µM, first compound 3.16 µM
[30] = second compound 10 µM, first compound 10 µM
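Further: spheroids exposed to agents for seven days before viability read.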

| Compound | IC50 (second compound 0.1 µM) [nM] | IC50 (second compound 0.316 µM) [nM] | IC50 (second compound 1 µM) [nM] | IC50 (second compound 3.16 µM) [nM] | IC50 (second compound 10 µM) [nM] | viability, T/C [1] [%] | viability, T/C [2] [%] | viability, T/C [3] [%] | viability, T/C [4] [%] | viability, T/C [5] [%] | viability, T/C [6] [%] | viability, T/C [7] [%] | viability, T/C [8] [%] | viability, T/C [9] [%] | viability, T/C [10] [%] | viability, T/C [11] [%] | viability, T/C [12] [%] | viability, T/C [13] [%] | viability, T/C [14] [%] | viability, T/C [15] [%] | further results |
| --- | --- | --- | --- | --- | --- | --- | --- | --- | --- | --- | --- | --- | --- | --- | --- | --- | --- | --- | --- | --- | --- |
| Nc1ccccc1NC(=O)c1ccc(CNC(=O)OCc2cccnc2)cc1 + CC(CO)NC(=O)c1cc(-c2ccc(Cl)cc2)nn(-c2cnn(C)c2)c1=O | 3830 | 2540 | 3990 | 3250 | 2710 | 116 | 122 | 99.1 | 66.3 | 63.9 | 26.3 | 118 | 112 | 95.2 | 61.4 | 52.4 | 26.7 | 99.2 | 109 | 102 | viability, T/C [16]: 69.5%; viability, T/C [17]: 61.6%; viability, T/C [18]: 25.7%; viability, T/C [19]: 88%; viability, T/C [20]: 90.8%; viability, T/C [21]: 84.9%; viability, T/C [22]: 63.9%; viability, T/C [23]: 56.4%; viability, T/C [24]: 7.19%; viability, T/C [25]: 82.2%; viability, T/C [26]: 90.8%; viability, T/C [27]: 80.9%; viability, T/C [28]: 63.9%; viability, T/C [29]: 50%; viability, T/C [30]: 1.83% |
| Nc1ccn(C2OC(CO)C(O)C2(F)F)c(=O)n1 (stereo not given) + Cc1ccccc1N=Nc1ccc(NC(=O)c2ccnn2C)c(C)c1 | 37.1 | < 31.6 | < 31.6 | < 31.6 | < 31.6 | 53.1 | 32.3 | 15.5 | 14.1 | 10.4 | 8.56 | 47.2 | 24.7 | 15.4 | 12.3 | 10.3 | 8.15 | 43.7 | 34.1 | 16.8 | viability, T/C [16]: 13.2%; viability, T/C [17]: 9.31%; viability, T/C [18]: 7.14%; viability, T/C [19]: 46.6%; viability, T/C [20]: 32.8%; viability, T/C [21]: 15.7%; viability, T/C [22]: 12.6%; viability, T/C [23]: 10.9%; viability, T/C [24]: 7.52%; viability, T/C [25]: 44.9%; viability, T/C [26]: 34.8%; viability, T/C [27]: 19.2%; viability, T/C [28]: 14.3%; viability, T/C [29]: 13.1%; viability, T/C [30]: 8.08% |
